Source: ChEMBL document CHEMBL5291721, “A preclinical secondary pharmacology resource illuminates target-adverse drug reaction associations of marketed drugs” (Nat Commun, 2023)

How the values were obtained:
[1] = target: T1, Cholecystokinin receptor type A (Homo sapiens, UniProt P32238)
T1 sequence (P32238 whole entry): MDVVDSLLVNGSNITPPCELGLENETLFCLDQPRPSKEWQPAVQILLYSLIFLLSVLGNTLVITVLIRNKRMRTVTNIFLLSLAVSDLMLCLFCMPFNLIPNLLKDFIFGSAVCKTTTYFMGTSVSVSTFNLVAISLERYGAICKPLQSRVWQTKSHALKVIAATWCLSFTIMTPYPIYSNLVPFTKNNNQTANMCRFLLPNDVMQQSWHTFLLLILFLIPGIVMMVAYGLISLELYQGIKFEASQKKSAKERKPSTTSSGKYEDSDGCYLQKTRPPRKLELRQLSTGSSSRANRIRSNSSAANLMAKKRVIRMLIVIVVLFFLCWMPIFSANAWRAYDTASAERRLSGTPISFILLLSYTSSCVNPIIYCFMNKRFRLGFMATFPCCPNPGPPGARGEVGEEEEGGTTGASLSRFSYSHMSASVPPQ

[2] = target: Gamma-aminobutyric acid receptor subunit alpha-1 (Rattus norvegicus, UniProt P62813)
Sequence of Gamma-aminobutyric acid receptor subunit alpha-1 (P62813 whole entry): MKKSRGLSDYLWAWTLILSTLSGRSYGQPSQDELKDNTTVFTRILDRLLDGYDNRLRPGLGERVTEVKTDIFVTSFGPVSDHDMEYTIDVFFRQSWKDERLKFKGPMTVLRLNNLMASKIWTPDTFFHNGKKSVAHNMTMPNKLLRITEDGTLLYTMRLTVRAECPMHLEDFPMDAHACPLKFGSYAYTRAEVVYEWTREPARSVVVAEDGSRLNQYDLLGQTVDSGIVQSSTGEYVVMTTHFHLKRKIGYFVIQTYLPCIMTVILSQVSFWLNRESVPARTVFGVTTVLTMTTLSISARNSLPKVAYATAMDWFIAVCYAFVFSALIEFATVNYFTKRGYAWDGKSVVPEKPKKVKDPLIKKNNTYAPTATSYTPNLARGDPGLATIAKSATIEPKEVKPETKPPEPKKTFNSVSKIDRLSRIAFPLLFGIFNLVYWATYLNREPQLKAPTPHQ

[3] = target: T2, 5-hydroxytryptamine receptor 3A (Homo sapiens, UniProt P46098); type: functional
T2 sequence (P46098 whole entry): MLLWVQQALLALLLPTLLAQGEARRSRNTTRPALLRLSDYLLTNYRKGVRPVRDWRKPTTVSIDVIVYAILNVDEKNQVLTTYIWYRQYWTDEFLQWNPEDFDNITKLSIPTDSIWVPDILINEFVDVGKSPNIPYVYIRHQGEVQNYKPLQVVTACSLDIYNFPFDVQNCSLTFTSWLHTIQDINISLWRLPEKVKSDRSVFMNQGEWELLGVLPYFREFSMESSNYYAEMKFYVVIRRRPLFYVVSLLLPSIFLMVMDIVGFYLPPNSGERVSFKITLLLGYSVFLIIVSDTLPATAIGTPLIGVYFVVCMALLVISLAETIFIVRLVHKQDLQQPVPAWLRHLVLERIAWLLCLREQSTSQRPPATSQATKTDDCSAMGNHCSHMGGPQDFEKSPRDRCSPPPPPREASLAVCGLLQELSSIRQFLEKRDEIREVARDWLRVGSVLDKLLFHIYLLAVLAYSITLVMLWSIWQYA

[4] = target: 5-hydroxytryptamine receptor 2B (Homo sapiens, UniProt P41595); type: functional, cell-based
Sequence of 5-hydroxytryptamine receptor 2B (P41595 whole entry): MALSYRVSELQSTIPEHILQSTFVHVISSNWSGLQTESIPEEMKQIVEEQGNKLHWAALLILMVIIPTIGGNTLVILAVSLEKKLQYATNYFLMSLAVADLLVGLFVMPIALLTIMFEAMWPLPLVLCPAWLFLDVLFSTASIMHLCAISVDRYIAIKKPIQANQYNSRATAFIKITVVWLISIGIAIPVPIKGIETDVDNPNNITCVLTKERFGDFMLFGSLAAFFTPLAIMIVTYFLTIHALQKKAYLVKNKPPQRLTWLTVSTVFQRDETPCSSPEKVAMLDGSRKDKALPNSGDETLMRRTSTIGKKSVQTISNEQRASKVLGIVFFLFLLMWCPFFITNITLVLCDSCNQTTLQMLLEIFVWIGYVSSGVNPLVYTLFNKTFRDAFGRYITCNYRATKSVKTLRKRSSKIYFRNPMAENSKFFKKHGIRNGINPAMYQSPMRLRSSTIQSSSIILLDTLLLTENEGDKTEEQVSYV

[5] = target: T3, Alpha-2A adrenergic receptor (Homo sapiens, UniProt P08913); type: functional, cell-based
T3 sequence (P08913 whole entry): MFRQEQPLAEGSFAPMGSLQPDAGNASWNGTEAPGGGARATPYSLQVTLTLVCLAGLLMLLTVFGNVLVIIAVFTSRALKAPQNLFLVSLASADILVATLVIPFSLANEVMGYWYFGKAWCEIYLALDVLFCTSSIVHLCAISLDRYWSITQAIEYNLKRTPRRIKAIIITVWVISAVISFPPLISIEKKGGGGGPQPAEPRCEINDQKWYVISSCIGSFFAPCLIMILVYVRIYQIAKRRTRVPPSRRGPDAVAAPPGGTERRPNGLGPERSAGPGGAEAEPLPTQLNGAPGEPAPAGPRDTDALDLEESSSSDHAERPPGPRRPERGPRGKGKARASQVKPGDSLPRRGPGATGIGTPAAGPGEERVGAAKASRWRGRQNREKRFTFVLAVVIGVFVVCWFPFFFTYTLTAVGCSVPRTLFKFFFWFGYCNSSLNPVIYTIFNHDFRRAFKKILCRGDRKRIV

[6] = target: T4, Muscarinic acetylcholine receptor M1 (Homo sapiens, UniProt P11229); type: functional, cell-based
T4 sequence (P11229 whole entry): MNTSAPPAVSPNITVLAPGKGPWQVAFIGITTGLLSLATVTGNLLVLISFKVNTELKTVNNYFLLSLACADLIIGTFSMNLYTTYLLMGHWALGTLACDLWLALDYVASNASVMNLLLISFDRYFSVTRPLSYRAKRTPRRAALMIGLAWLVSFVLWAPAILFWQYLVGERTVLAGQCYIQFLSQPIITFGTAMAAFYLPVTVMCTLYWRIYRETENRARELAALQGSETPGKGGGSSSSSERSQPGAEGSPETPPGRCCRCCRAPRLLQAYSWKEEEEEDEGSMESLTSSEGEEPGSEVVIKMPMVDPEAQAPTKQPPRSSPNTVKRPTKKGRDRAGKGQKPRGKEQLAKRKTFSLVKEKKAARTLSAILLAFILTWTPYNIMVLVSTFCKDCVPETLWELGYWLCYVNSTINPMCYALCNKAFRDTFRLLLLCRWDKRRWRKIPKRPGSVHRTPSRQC

[7] = target: T4, Muscarinic acetylcholine receptor M1; type: functional, cell-based; remark: listed apart in the source
Note: assay procedure not described here.

Row | Structure (SMILES) | AC50 [1] [µM] | AC50 [2] [µM] | AC50 [3] [µM] | AC50 [4] [µM] | AC50 [5] [µM] | AC50 [6] [µM] | AC50 [7] [µM]
1 | CCn1cc(C(=O)O)c(=O)c2cc(F)c(N3CCNCC3)nc21 [ENOXACIN] | > 30 | > 10 | > 10 | > 10 | > 10 |  | 
2 | O=C(O)CSCC(=O)NC1CCSC1=O (configuration not stated) [ERDOSTEINE] | > 30 | > 30 | > 30 | > 30 | > 30 |  | 
3 | CCOC(=O)c1ccc(OC(=O)CCCCCNC(=N)N)cc1 [GABEXATE] |  |  |  |  |  | > 30 | > 30
4 | CCCCC/C=C\C/C=C\C/C=C\CCCCC(=O)O [GAMOLENIC ACID] |  |  |  |  |  | > 30 | > 30
5 | CC(N)CCCC(C)(C)O (configuration not stated) [HEPTAMINOL] |  |  |  |  |  | > 30 | > 30
6 | COc1cccc(N(C)C(=S)Oc2ccc3c(c2)CCCC3)n1 [LIRANAFTATE] | > 30 | > 30 | > 30 | > 30 | > 30 |  | 
7 | C#C[C@]1(O)CC[C@H]2[C@@H]3CCc4cc(OC)ccc4[C@H]3CC[C@@]21C [MESTRANOL] | > 10 | > 10 | > 30 | > 10 | > 10 |  | 
8 | N=C(N)c1ccc2cc(OC(=O)c3ccc(N=C(N)N)cc3)ccc2c1 [NAFAMOSTAT] | > 30 | 3.5 | 14 | > 30 | > 30 |  | 
9 | CNC(=O)Oc1ccc2c(c1)[C@]1(C)CCN(C)[C@@H]1N2C [PHYSOSTIGMINE] | > 30 | > 30 | > 30 | > 30 | > 30 |  | 
10 | O=C(O)c1cc(O)c2c3nc4ccccc4oc-3cc(=O)c2n1 [PIRENOXINE] | 5.1 | > 30 | 2.6 | > 30 | > 30 |  | 
11 | NS(=O)(=O)c1cc(C(=O)O)cc(N2CCCC2)c1Oc1ccccc1 [PIRETANIDE] | > 30 | > 30 | > 30 | > 30 | > 30 |  | 
12 | CNCCCC1c2ccccc2C=Cc2ccccc21 [PROTRIPTYLINE] | > 10 | > 10 | > 30 | > 10 |  |  | 
13 | COCCCOc1ccnc(C[S+]([O-])c2nc3ccccc3[nH]2)c1C (configuration not stated) [RABEPRAZOLE] | > 30 | > 10 | 6 | > 10 | > 10 |  | 
14 | CO[C@H]1/C=C/O[C@@]2(C)Oc3c(C)c(O)c4c(O)c(cc(O)c4c3C2=O)NC(=O)/C(C)=C\C=C\[C@H](C)[C@H](O)[C@@H](C)[C@@H](O)[C@@H](C)[C@H](OC(C)=O)[C@@H]1C [RIFAMYCIN] |  |  |  |  |  | 11.6 | 
15 | CC(C)=CCOc1ccc(/C=C/C(=O)c2ccc(OCC=C(C)C)cc2OCC(=O)O)cc1 [SOFALCONE] | > 30 | > 30 | > 30 | > 30 | > 30 |  | 
16 | O=C(CCCN1CCC2(CC1)C(=O)NCN2c1ccccc1)c1ccc(F)cc1 [SPIPERONE] | > 30 | > 30 | > 30 | 5.21 | 0.98 |  | 
17 | CCSc1ccc2c(c1)N(CCCN1CCN(C)CC1)c1ccccc1S2 [THIETHYLPERAZINE] |  |  |  |  |  | 29.1 | 
18 | CN(C)c1cc(NC(=O)CNC(C)(C)C)c(O)c2c1C[C@H]1C[C@H]3[C@H](N(C)C)C(O)=C(C(N)=O)C(=O)[C@@]3(O)C(O)=C1C2=O [TIGECYCLINE] | > 30 | > 30 | > 30 | > 30 | > 30 |  | 
19 | OCCN1CCN(CC/C=C2/c3ccccc3Sc3ccc(Cl)cc32)CC1 [ZUCLOPENTHIXOL] | > 10 | > 10 | > 10 | > 10 | 7.3 |  | 
